In PubChem BioAssay AID2745 (NMMLSC, 2010) one finds EC50 and LAP4-GFP fluorescence (kMESF) data, which are given here for 43 molecules.

In assay [1] the test system is S. cerevisiae LAP4-GFP reporter, flow cytometry fluorescence. Nature of the assay: concentration series on yeast TOR reporter LAP4 – cell-based, MLPCN hits, flow cytometry, dose response (AID 2745).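 Note: yeast exposed to compound for three hours at 30 degrees.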
Assay in assay [2]: as above
As to conditions: S. cerevisiae LAP4-GFP reporter, flow cytometry fluorescence; at 33 µM (top of the series). Background: A flow cytometer gives signals particle by particle.

pEC50: −log10 of the molar value. Activity calls are given as the source filed them. The rule behind the calls is not given here.

Usually pEC50 stands for −log10 of the EC50, conventionally taken in molar units. With `O=C1C=CC(=O)N1c1ccc(N2CCCCC2)cc1`, in assay [1], the pEC50 is 5.91. On the same count and under the same terms, as for `COc1cc(/C=C2\C(=O)N(CCC#N)N=C2C)c(Br)cc1OC(C)C`, the figure is 5.38.

As to `O=C(OCn1ncc(Br)c(Br)c1=O)c1ccc(F)cc1`, in assay [1], the pEC50 is 4.72.

Turning to `Cc1ccc(S(=O)(=O)c2ncccc2[N+](=O)[O-])cc1`, in assay [1], the pEC50 was 4.84. Same read-out and setting: as for `COc1ccc(N2CCN(C(=O)c3ccc(Br)cc3)CC2)c([N+](=O)[O-])c1`, the figure is 4.94; as for `CC(=O)SC(C[N+](=O)[O-])c1cn(C(C)=O)c2ccccc12` (stereo not drawn), 4.97.

As for `Nc1ccccc1C#CC(=O)c1ccccc1`, in assay [1], the pEC50 was 5.08. Still for that read-out and setting: as for `CSC1=NS(=O)(=O)c2c(C)nn(C)c2S1`, the figure is 4.56; as for `COc1ccc(/C=C/C(=O)C2C(=O)C=C(C)OC2=O)cc1O` (stereo not drawn), 4.93; as for `N/C(Cc1ccc(Cl)cc1)=N\OC(=O)c1cccc2ccccc12`, 5.73.

As to `COc1ccc(/C=C/C(=O)NC(=S)NNC(=O)c2cnccn2)cc1`, the pEC50 in assay [1] is 5.88. The same measure, in the same setting: in the case of `Cc1cccc(N=Nc2ccc(O)c3ncccc23)c1` it was 4.85. On the same count and under the same terms, in the case of `CCCOc1ccc(C(=O)NNC(=S)NC(=O)CC)cc1` it was 4.94; in that of `CCOC(=O)CSC1=NC(=O)/C(=C\c2ccc(Cl)cc2)S1`, 4.57. Still for that read-out and setting: as for `O=[N+]([O-])c1cc(F)c2cccnc2c1O`, the figure is 5.93; as for `COc1cccc(/C=N/Nc2ccc([N+](=O)[O-])cn2)c1O`, 5.24.

Take `O=C1NC(=O)N(Cc2ccc(F)cc2)C(=O)/C1=C/c1cccs1`: the pEC50 in assay [1] was 5.47. With `COc1ccc(C(=O)NC(=S)NNC(=O)c2cnccn2)cc1`, in assay [1], the pEC50 was 5.88. With `Cc1ccc(C(=O)O)cc1N=Cc1cc(Br)cc(Br)c1O`, the pEC50 in assay [1] was 5.38.

With `O=[N+]([O-])c1ccc(N=Nc2c(Cl)cc(O)cc2Cl)cc1`, the pEC50 in assay [1] is 5.30. For `CC1(C)C[C@H]2C=C(C=O)[C@]3(C=O)C[C@]3(C)[C@H]2C1`, the negative logarithm of the EC50 (pEC50) in assay [1] is 6.06. The same measure, in the same setting: in the case of `Clc1ccc(N=c2ssnc2Cl)cc1` it was 4.71; in that of `CC1=NOC(=O)/C1=C\c1ccc(-c2cc(Cl)ccc2Cl)o1`, 4.57; in that of `Cc1cccc(Nc2nc(-c3ccccn3)cs2)n1`, 5.42.

With `O=C(Nc1ccc(Cl)cc1)ON=C1CCCC1`, the pEC50 in assay [1] is 5.40. Still for that read-out and setting: as for `CC1=C/C(=N\OS(=O)(=O)c2ccccc2)C(C(C)C)=CC1=O`, the figure is 5.29; as for `CCCCS(=O)(=O)/C=C\C=C/S(=O)(=O)CCCC`, 5.59; as for `CCCOc1ccc(C(=O)NNC(=S)NC(=O)c2ccco2)cc1`, 4.88.

Take `CCOC(=O)/C(=C\c1cn(C)c2ccccc12)[N+](=O)[O-]`: the pEC50 in assay [1] was 5.65. Same read-out and setting: in the case of `CCCCCCCCn1sccc1=O` it was 6.04; in that of `Cc1cc(C(=O)COC(=O)c2ccc[nH]c2=O)c(C)n1-c1ccccc1F`, 6.06; in that of `O=C1ON=C(c2ccccc2)/C1=C\c1ccco1`, 5.44. `COC(=O)/C(=C/c1c[nH]c2ccccc12)[N+](=O)[O-]`: the pEC50 in assay [1] was 4.68.

For the molecule `Cc1ccc(NC(=O)c2ccc(Cl)c(N3C(=O)C=CC3=O)c2)cc1`, in assay [1], the negative logarithm of the EC50 (pEC50) is 5.80. Take `O=[N+]([O-])c1cc(O)c2ncccc2c1`: the negative logarithm of the EC50 (pEC50) in assay [1] was 5.01. Still for that read-out and setting: in the case of `O=[N+]([O-])c1cc(S(=O)(=O)C(F)(F)F)ccc1Sc1nc2ccccc2s1` it was 5.07; in that of `O=C(/C=C/c1ccc(Cl)c([N+](=O)[O-])c1)c1cccnc1`, 4.54; in that of `Cc1ccc(S(=O)(=O)c2ccc([N+](=O)[O-])cn2)cc1`, 4.83. Consider `Cc1ccc(S(=O)(=O)ON2C(=O)c3ccccc3C2=O)c(C)c1`, for which the pEC50 in assay [1] is 5.41.

With `Cc1ccccc1[C@@]1(C)ON(c2ccccc2C(F)(F)F)C1=O`, the LAP4-GFP fluorescence (kMESF) in assay [2] was 5.8 kMESF (inactive). Still for that read-out and setting: as for `CCOc1ccc(C(C)=O)cc1N1C(=O)C2C3C=CC(O3)C2C1=O` (stereo not drawn), the figure is 14 kMESF (inactive); as for `O=S(=O)(/N=C(\Sc1ccc(Cl)cc1)c1ccccc1)c1ccccc1`, 12.4 kMESF (inactive). Same read-out and setting: in the case of `COc1ccc(-c2cc(C(F)(F)F)nc(S(C)(=O)=O)n2)cc1` it was 10.6 kMESF (inactive).
